The record followed here is a melting point compilation (Tetko et al.; mined from patent text by program, amines drawn as free bases though some values may be those of a salt).

SMILES strings stand for the structures.

As usually defined, the melting point is the temperature, or range, at which the solid turns liquid. In turn, `OC1CSC(Oc2ccccc2-c2ccoc2)C(O)C1O` (stereo not drawn) registered a melting point of 102 °C.

In turn, `Cn1cc(C(=O)NCc2ccc(Cl)cc2)c(=O)c2ccoc21` had a melting point of 197 to 205 °C. Under `COc1cc(C2CCN(C[C@H](O)CO)CC2)ccc1Nc1ncc2ccc(-c3ccccc3OC)n2n1` stands 66 to 80 °C; under `CC(C)=CCCN1c2ccccc2CN1[N+](=O)[O-]`, 51 to 52 °C; under `Cc1c(Br)c2cnnc(OCc3ccccc3)c2n1Cc1ccccc1`, 122 to 123 °C. For `O=C(O)C1=Cc2cc(F)c(N3CCC4(C3)OCCCO4)nc2N(c2ccc(F)cc2F)C1` the value was 145 to 146 °C; for `CCOC(=O)C1=C(C)N=C(OC)N(C(=O)OCC)C1c1cccc([N+](=O)[O-])c1` (stereo not drawn), 61.5 to 64.5 °C. Under `Cc1nc[nH]c1CSCCNC(=C[N+](=O)[O-])NN` stands 142 °C. `CC(C)CCC(O)C(CC1CCCCC1)NC(=O)C(Cc1c[nH]cn1)N(C)C(=O)C(Cc1ccccc1)NC(=O)N1CCOCC1` (stereo not drawn): the melting point is 102 to 108 °C. Under `CCCCCCC(C(=O)O)n1ccc2cc(-c3ccccc3-c3nn[nH]n3)ccc21` (stereo not drawn) stands 105 to 115 °C. For `CS(=O)(=O)c1ccc(-n2nc(C(F)(F)F)cc2-c2ccc(-c3ccco3)c(Cl)c2)cc1`, the melting point lay within 143 to 145 °C. Under `Cc1oc(Cc2cccc(Br)c2)c(C(=O)c2cc(C(C)C)c(OS(=O)(=O)c3ccc(C(=O)O)c(O)c3)c(C(C)C)c2)c1C` stands 148 °C; under `CCN1CCc2ccc(Nc3ncc(Cl)c(Nc4ccccc4C(=O)NC)n3)cc2CC1`, 201 °C; under `Cc1ccc(S(=O)(=O)N=NCNC[C@@H]2C[C@H](C(=O)O)N(C(=O)OC(C)(C)C)C2)cc1`, 132 to 133 °C. Under `Oc1nc2nc(SCc3ccccc3)nn2c(O)c1-c1c(F)cc(F)cc1F` stands 273 °C; under `CON=C1CN(c2c(F)cc3c(=O)c(C(=O)O)cn(C4CC4)c3c2OC)CC12CC2`, 219 to 221 °C. In turn, `CN(C(=O)c1ccc(Cl)cc1)c1ccccc1CCCC(C(=O)O)C(=O)O` returned a melting point of 117 to 118 °C. Under `CCN(CC)CCn1sc2nc(-c3ccccc3)ncc2c1=O` stands 106 to 107 °C. Under `FC(F)(F)c1cccc(-c2snnc2S)c1` stands greater than 200 °C; under `CCNC(=S)NC1=Nc2ccc(OC(F)(F)F)cc2SC1`, 199 to 201 °C; under `CCCCn1ccc(-c2ccc(Oc3cc(C)nc(C)c3)c(F)c2)c(C#N)c1=O`, 205 °C. Under `COc1ccc2[nH]c(C)c(-c3nc(OC)cc(OC)n3)c2c1` stands 182 to 184 °C. As to `Cc1ccc(N2CCN(Cc3n[nH]c4ccccc34)CC2)nc1`, the melting point lay within 151 to 153 °C.

With `O=C(O)CN1C(=O)CC1SCc1ccccc1` (stereo not drawn), the melting point was 110 °C.

The compound `COc1cc(OS(C)(=O)=O)ccc1-c1nc2cc3c(cc2[nH]1)NC(=O)C3(C)C` registered a melting point of 233 to 235 °C. For `CN(CC(O)c1ccc(C=O)cc1)C(=O)OC(C)(C)C` (stereo not drawn) the value was 37 to 39 °C; for `CCOP(=O)(CCCCc1ccc2ccccc2c1O)OCC`, 90 to 91 °C.

Consider `CN(C)CCN1c2ccccc2C(=O)N(C)c2cccnc21`, for which the melting point lay in the range of 109 to 110 °C. Consider `CCOC(=O)CNC(=O)COc1c(F)cc(CSCCNS(=O)(=O)c2ccc(Cl)cc2)cc1F`, for which the melting point lay within 88.5 to 89.5 °C. For `Cc1ncsc1CCSc1ccnc(CSc2nc3ccccc3[nH]2)c1C` the value was 150 to 152 °C. `COc1ccc2c(C3OC(=O)NC3=O)c(OC)ccc2c1` (stereo not drawn): the melting point is 175 to 180 °C. For `COc1ccc(C(=NOC(C)=O)c2cc(F)ccc2F)c(O)c1` the value was 110 to 111 °C; for `CCCCN(CCCC)c1ccc(C=CC=Cc2ccc(C=CC3=C(C#N)C(=C(C#N)C#N)OC3(C)C(F)(F)F)s2)c(OC)c1` (stereo not drawn), 161 to 162 °C.
